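48-hour exposure; five concentrations; linearly interpolated endpoints. GI50: concentration for 50% inhibition of growth. Definition used: TGI = concentration required for complete inhibition of growth.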
Experiments:
Experiment in all cases: NCI-60 cell line screen, 48 h
T-47D breast = test system: T-47D breast
NCI-H226 lung = test system: NCI-H226 lung
SK-OV-3 ovarian = test system: SK-OV-3 ovarian
HS 578T breast = test system: HS 578T breast
SR leukemia = test system: SR leukemia
A498 renal = test system: A498 renal
UACC-257 melanoma = test system: UACC-257 melanoma
DU-145 prostate = test system: DU-145 prostate
OVCAR-8 ovarian = test system: OVCAR-8 ovarian
UO-31 renal = test system: UO-31 renal
CAKI-1 renal = test system: CAKI-1 renal
IGROV1 ovarian = test system: IGROV1 ovarian
KM12 colon = test system: KM12 colon
SK-MEL-28 melanoma = test system: SK-MEL-28 melanoma
ACHN renal = test system: ACHN renal
SNB-75 CNS = test system: SNB-75 CNS
RPMI-8226 leukemia = test system: RPMI-8226 leukemia
NCI-H522 lung = test system: NCI-H522 lung
MCF7 breast = test system: MCF7 breast
RXF 393 renal = test system: RXF 393 renal
HT29 colon = test system: HT29 colon
U251 CNS = test system: U251 CNS
NCI-H23 lung = test system: NCI-H23 lung
BT-549 breast = test system: BT-549 breast
HOP-92 NSCLC = test system: HOP-92 NSCLC
CCRF-CEM leukemia = test system: CCRF-CEM leukemia
MDA-MB-435 = test system: MDA-MB-435
PC-3 prostate = test system: PC-3 prostate
NCI-H460 lung = test system: NCI-H460 lung
SK-MEL-2 melanoma = test system: SK-MEL-2 melanoma
M14 melanoma = test system: M14 melanoma
EKVX NSCLC = test system: EKVX NSCLC
OVCAR-5 ovarian = test system: OVCAR-5 ovarian
SF-295 CNS = test system: SF-295 CNS
COLO 205 colon = test system: COLO 205 colon
OVCAR-3 ovarian = test system: OVCAR-3 ovarian
LOX IMVI melanoma = test system: LOX IMVI melanoma
SW-620 colon = test system: SW-620 colon
SF-268 CNS = test system: SF-268 CNS
SF-539 CNS = test system: SF-539 CNS
UACC-62 melanoma = test system: UACC-62 melanoma
786-0 renal = test system: 786-0 renal
SK-MEL-5 melanoma = test system: SK-MEL-5 melanoma
HCT-116 colon = test system: HCT-116 colon
HCC-2998 colon = test system: HCC-2998 colon
MOLT-4 leukemia = test system: MOLT-4 leukemia
MDA-MB-468 breast = test system: MDA-MB-468 breast
HL-60(TB) leukemia = test system: HL-60(TB) leukemia
MALME-3M melanoma = test system: MALME-3M melanoma
OVCAR-4 ovarian = test system: OVCAR-4 ovarian
SNB-19 CNS = test system: SNB-19 CNS
K-562 leukemia = test system: K-562 leukemia
MDA-MB-231 breast = test system: MDA-MB-231 breast
HCT-15 colon = test system: HCT-15 colon
HOP-62 NSCLC = test system: HOP-62 NSCLC
TK-10 renal = test system: TK-10 renal
A549 NSCLC = test system: A549 NSCLC
SN12C renal = test system: SN12C renal

Structure (SMILES): CC(=O)Oc1ccccc1C(=O)NC([Se])=NC1CCCCC1
- GI50 (T-47D breast): 12.5 µM
- TGI (T-47D breast): 30.2 µM
- GI50 (NCI-H226 lung): 2.56 µM
- TGI (NCI-H226 lung): 9.46 µM
- GI50 (SK-OV-3 ovarian): 2.84 µM
- TGI (SK-OV-3 ovarian): 7.5 µM
- GI50 (HS 578T breast): 2.67 µM
- TGI (HS 578T breast): 9.16 µM
- GI50 (SR leukemia): 3.11 µM
- TGI (SR leukemia): 14.4 µM
- GI50 (A498 renal): 2.41 µM
- TGI (A498 renal): 7.58 µM
- GI50 (UACC-257 melanoma): 2.93 µM
- TGI (UACC-257 melanoma): 10.2 µM
- GI50 (DU-145 prostate): 3.22 µM
- TGI (DU-145 prostate): 10.2 µM
- GI50 (OVCAR-8 ovarian): 1.95 µM
- TGI (OVCAR-8 ovarian): 3.73 µM
- GI50 (UO-31 renal): 1.62 µM
- TGI (UO-31 renal): 3.03 µM
- GI50 (CAKI-1 renal): 3.07 µM
- TGI (CAKI-1 renal): 11.5 µM
- GI50 (IGROV1 ovarian): 2.02 µM
- TGI (IGROV1 ovarian): 3.98 µM
- GI50 (KM12 colon): 3.42 µM
- TGI (KM12 colon): 11.7 µM
- GI50 (SK-MEL-28 melanoma): 3.59 µM
- TGI (SK-MEL-28 melanoma): 13.1 µM
- GI50 (ACHN renal): 9.75 µM
- TGI (ACHN renal): 25.8 µM
- GI50 (SNB-75 CNS): 1.71 µM
- TGI (SNB-75 CNS): 5.87 µM
- GI50 (RPMI-8226 leukemia): 2.63 µM
- TGI (RPMI-8226 leukemia): 7.61 µM
- GI50 (NCI-H522 lung): 15.6 µM
- TGI (NCI-H522 lung): 30 µM
- GI50 (MCF7 breast): 2.24 µM
- TGI (MCF7 breast): 6.8 µM
- GI50 (RXF 393 renal): 1.65 µM
- TGI (RXF 393 renal): 3.34 µM
- GI50 (HT29 colon): 4.87 µM
- TGI (HT29 colon): 28.7 µM
- GI50 (U251 CNS): 2.35 µM
- TGI (U251 CNS): 6.24 µM
- GI50 (NCI-H23 lung): 2.24 µM
- TGI (NCI-H23 lung): 5.35 µM
- GI50 (BT-549 breast): 3.3 µM
- TGI (BT-549 breast): 11.3 µM
- GI50 (HOP-92 NSCLC): 2.34 µM
- TGI (HOP-92 NSCLC): 6.52 µM
- GI50 (CCRF-CEM leukemia): 5.25 µM
- TGI (CCRF-CEM leukemia): 29.4 µM
- GI50 (MDA-MB-435): 7.88 µM
- TGI (MDA-MB-435): 20.9 µM
- GI50 (PC-3 prostate): 2.63 µM
- TGI (PC-3 prostate): 8.24 µM
- GI50 (NCI-H460 lung): 2.62 µM
- TGI (NCI-H460 lung): 7.24 µM
- GI50 (SK-MEL-2 melanoma): 2.35 µM
- TGI (SK-MEL-2 melanoma): 5.29 µM
- GI50 (M14 melanoma): 2.43 µM
- TGI (M14 melanoma): 5.7 µM
- GI50 (EKVX NSCLC): 2.12 µM
- TGI (EKVX NSCLC): 4.93 µM
- GI50 (OVCAR-5 ovarian): 2.07 µM
- TGI (OVCAR-5 ovarian): 5.15 µM
- GI50 (SF-295 CNS): 2.24 µM
- TGI (SF-295 CNS): 5.08 µM
- GI50 (COLO 205 colon): 17.1 µM
- TGI (COLO 205 colon): 31.4 µM
- GI50 (OVCAR-3 ovarian): 12.4 µM
- TGI (OVCAR-3 ovarian): 25.9 µM
- GI50 (LOX IMVI melanoma): 1.96 µM
- TGI (LOX IMVI melanoma): 4.26 µM
- GI50 (SW-620 colon): 10.2 µM
- TGI (SW-620 colon): 23.6 µM
- GI50 (SF-268 CNS): 13.7 µM
- TGI (SF-268 CNS): 31.2 µM
- GI50 (SF-539 CNS): 1.84 µM
- TGI (SF-539 CNS): 3.46 µM
- GI50 (UACC-62 melanoma): 1.79 µM
- TGI (UACC-62 melanoma): 3.89 µM
- GI50 (786-0 renal): 1.72 µM
- TGI (786-0 renal): 3.28 µM
- GI50 (SK-MEL-5 melanoma): 1.63 µM
- TGI (SK-MEL-5 melanoma): 3.07 µM
- GI50 (HCT-116 colon): 3.18 µM
- TGI (HCT-116 colon): 12.6 µM
- GI50 (HCC-2998 colon): 2.28 µM
- TGI (HCC-2998 colon): 5.11 µM
- GI50 (MOLT-4 leukemia): 10.8 µM
- TGI (MOLT-4 leukemia): 98.8 µM
- GI50 (MDA-MB-468 breast): 7.37 µM
- TGI (MDA-MB-468 breast): 20.7 µM
- GI50 (HL-60(TB) leukemia): 18.2 µM
- TGI (HL-60(TB) leukemia): > 100 µM
- GI50 (MALME-3M melanoma): 16.7 µM
- TGI (MALME-3M melanoma): 30.3 µM
- GI50 (OVCAR-4 ovarian): 4.35 µM
- TGI (OVCAR-4 ovarian): 16.9 µM
- GI50 (SNB-19 CNS): 3.28 µM
- TGI (SNB-19 CNS): 11.7 µM
- GI50 (K-562 leukemia): 26.1 µM
- TGI (K-562 leukemia): > 100 µM
- GI50 (MDA-MB-231 breast): 1.96 µM
- TGI (MDA-MB-231 breast): 3.77 µM
- GI50 (HCT-15 colon): 3.43 µM
- TGI (HCT-15 colon): 11.6 µM
- GI50 (HOP-62 NSCLC): 3.35 µM
- TGI (HOP-62 NSCLC): 13.4 µM
- GI50 (TK-10 renal): 12.1 µM
- TGI (TK-10 renal): 24.7 µM
- GI50 (A549 NSCLC): 3.3 µM
- TGI (A549 NSCLC): 23 µM
- GI50 (SN12C renal): 1.99 µM
- TGI (SN12C renal): 4.41 µM
